Laboratory results published in publication PMC10986521 (Microbiology Spectrum, 2024).

Biological target: T1, FMDV 3Cpro (Foot-and-mouth disease virus A, UniProt A0A097I315)
Assay: biochemical
Design: species or system FMDV A/IND287/96 strain (serotype A)
Settings: FRET assay (IC50)

Compound	IC50 [nM]
CC(C)C[C@H](NC(=O)OC[C@@H]1C[C@H]1c1ccccc1)C(=O)N[C@H](C=O)C[C@H]1CCNC1=O [Compound C1c]	1000 ± 280
CC(C)C[C@H](NC(=O)OC[C@@H]1C[C@H]1c1ccccc1)C(=O)N[C@@H](C[C@H]1CCNC1=O)C(O)S(=O)(=O)O (some centres unmarked) [Compound C1d]	750 ± 70
CC(C)C[C@H](NC(=O)OC[C@H]1[C@H](c2ccccc2)C1(F)F)C(=O)N[C@H](C=O)C[C@H]1CCNC1=O [Compound C2c]	1350 ± 640
CC(C)C[C@H](NC(=O)OC[C@H]1[C@H](c2ccccc2)C1(F)F)C(=O)N[C@@H](C[C@H]1CCNC1=O)C(O)S(=O)(=O)O (some centres unmarked) [Compound C2d]	1100 ± 570
CC(C)C[C@H](NC(=O)OC[C@@H]1C[C@H]1Cc1ccccc1)C(=O)N[C@H](C=O)C[C@H]1CCNC1=O [Compound C3c]	690 ± 130
CC(C)C[C@H](NC(=O)OC[C@@H]1C[C@H]1Cc1ccccc1)C(=O)N[C@@H](C[C@H]1CCNC1=O)C(O)S(=O)(=O)O (some centres unmarked) [Compound C3d]	800 ± 140
CC(C)C[C@H](NC(=O)OC[C@H]1[C@H](Cc2ccccc2)C1(F)F)C(=O)N[C@H](C=O)C[C@H]1CCNC1=O [Compound C4c]	820 ± 150
CC(C)C[C@H](NC(=O)OC[C@H]1[C@H](Cc2ccccc2)C1(F)F)C(=O)N[C@@H](C[C@H]1CCNC1=O)C(O)S(=O)(=O)O (some centres unmarked) [Compound C4d]	1350 ± 350
CC(C)C[C@H](NC(=O)OC[C@@H]1C[C@H]1c1cccc(F)c1)C(=O)N[C@H](C=O)C[C@H]1CCNC1=O [Compound C5c]	1050 ± 210
CC(C)C[C@H](NC(=O)OC[C@@H]1C[C@H]1c1cccc(F)c1)C(=O)N[C@@H](C[C@H]1CCNC1=O)C(O)S(=O)(=O)O (some centres unmarked) [Compound C5d]	950 ± 220
CC(C)C[C@H](NC(=O)OC[C@@H]1C[C@H]1c1cccc(Cl)c1)C(=O)N[C@H](C=O)C[C@H]1CCNC1=O [Compound C6c]	800 ± 50
CC(C)C[C@H](NC(=O)OC[C@@H]1C[C@H]1c1ccc(Cl)cc1)C(=O)N[C@H](C=O)C[C@H]1CCNC1=O [Compound C8c]	1150 ± 80
CC(C)C[C@H](NC(=O)OC[C@@H]1C[C@H]1c1ccc(Cl)cc1)C(=O)N[C@@H](C[C@H]1CCNC1=O)C(O)S(=O)(=O)O (some centres unmarked) [Compound C8d]	550 ± 70
CC(C)C[C@H](NC(=O)OCC(C)(C)Sc1cccc(F)c1)C(=O)N[C@@H](C[C@@H]1CCNC1=O)C(O)S(=O)(=O)O (some centres unmarked) [Compound D5d]	810 ± 70
CC(C)C[C@H](NC(=O)OCC(C)(C)Oc1ccccc1)C(=O)N[C@H](C=O)C[C@@H]1CCNC1=O [Compound D10c]	740 ± 80
CC(C)C[C@H](NC(=O)OCC(C)(C)Oc1ccccc1)C(=O)N[C@@H](C[C@@H]1CCNC1=O)C(O)S(=O)(=O)O (some centres unmarked) [Compound D10d]	700 ± 280
CC(C)C[C@H](NC(=O)OCC(C)(O)c1cccc(Cl)c1)C(=O)N[C@H](C=O)C[C@@H]1CCNC1=O (some centres unmarked) [Compound D17c]	2000 ± 710
CC(C)C[C@H](NC(=O)OCC(C)(O)c1cccc(Cl)c1)C(=O)N[C@@H](C[C@@H]1CCNC1=O)C(O)S(=O)(=O)O (some centres unmarked) [Compound D17d]	900 ± 280
CC(C)C[C@H](NC(=O)OCc1ccccc1)C(=O)N[C@@H](C[C@@H]1CCNC1=O)C(=O)C(=O)NC(C)C [Compound E6a]	3900 ± 200
CC(C)C[C@H](NC(=O)OCc1ccccc1)C(=O)N[C@@H](C[C@@H]1CCNC1=O)C(=O)C(=O)NC1CCCCC1 [Compound E6e]	2800 ± 100

Biological target: T1, FMDV 3Cpro
Assay: cell-based
Design: species or system FMDV A/IND287/96 strain
Settings: Cell-based assay (EC50)

Compound	EC50 [nM]
CC(C)C[C@H](NC(=O)OC[C@@H]1C[C@H]1c1ccccc1)C(=O)N[C@H](C=O)C[C@H]1CCNC1=O [Compound C1c]	3150 ± 350
CC(C)C[C@H](NC(=O)OC[C@@H]1C[C@H]1c1ccccc1)C(=O)N[C@@H](C[C@H]1CCNC1=O)C(O)S(=O)(=O)O (some centres unmarked) [Compound C1d]	3250 ± 630
CC(C)C[C@H](NC(=O)OC[C@H]1[C@H](c2ccccc2)C1(F)F)C(=O)N[C@H](C=O)C[C@H]1CCNC1=O [Compound C2c]	1200 ± 140
CC(C)C[C@H](NC(=O)OC[C@H]1[C@H](c2ccccc2)C1(F)F)C(=O)N[C@@H](C[C@H]1CCNC1=O)C(O)S(=O)(=O)O (some centres unmarked) [Compound C2d]	1450 ± 210
CC(C)C[C@H](NC(=O)OC[C@@H]1C[C@H]1Cc1ccccc1)C(=O)N[C@H](C=O)C[C@H]1CCNC1=O [Compound C3c]	2740 ± 2140
CC(C)C[C@H](NC(=O)OC[C@@H]1C[C@H]1Cc1ccccc1)C(=O)N[C@@H](C[C@H]1CCNC1=O)C(O)S(=O)(=O)O (some centres unmarked) [Compound C3d]	4020 ± 300
CC(C)C[C@H](NC(=O)OC[C@H]1[C@H](Cc2ccccc2)C1(F)F)C(=O)N[C@@H](C[C@H]1CCNC1=O)C(O)S(=O)(=O)O (some centres unmarked) [Compound C4d]	3650 ± 630
CC(C)C[C@H](NC(=O)OC[C@@H]1C[C@H]1c1cccc(F)c1)C(=O)N[C@H](C=O)C[C@H]1CCNC1=O [Compound C5c]	2130 ± 490
CC(C)C[C@H](NC(=O)OC[C@@H]1C[C@H]1c1cccc(F)c1)C(=O)N[C@@H](C[C@H]1CCNC1=O)C(O)S(=O)(=O)O (some centres unmarked) [Compound C5d]	1890 ± 90
CC(C)C[C@H](NC(=O)OC[C@@H]1C[C@H]1c1cccc(Cl)c1)C(=O)N[C@H](C=O)C[C@H]1CCNC1=O [Compound C6c]	3300 ± 710

Test system: not listed separately
Assay: in vitro
Settings: human

Compound	CC50 [nM]
CC(C)C[C@H](NC(=O)OC[C@@H]1C[C@H]1c1ccccc1)C(=O)N[C@H](C=O)C[C@H]1CCNC1=O [Compound C1c]	> 50000
CC(C)C[C@H](NC(=O)OC[C@@H]1C[C@H]1c1ccccc1)C(=O)N[C@@H](C[C@H]1CCNC1=O)C(O)S(=O)(=O)O (some centres unmarked) [Compound C1d]	> 50000
CC(C)C[C@H](NC(=O)OC[C@H]1[C@H](c2ccccc2)C1(F)F)C(=O)N[C@H](C=O)C[C@H]1CCNC1=O [Compound C2c]	> 50000
CC(C)C[C@H](NC(=O)OC[C@H]1[C@H](c2ccccc2)C1(F)F)C(=O)N[C@@H](C[C@H]1CCNC1=O)C(O)S(=O)(=O)O (some centres unmarked) [Compound C2d]	> 50000
CC(C)C[C@H](NC(=O)OC[C@@H]1C[C@H]1Cc1ccccc1)C(=O)N[C@H](C=O)C[C@H]1CCNC1=O [Compound C3c]	> 50000
CC(C)C[C@H](NC(=O)OC[C@@H]1C[C@H]1Cc1ccccc1)C(=O)N[C@@H](C[C@H]1CCNC1=O)C(O)S(=O)(=O)O (some centres unmarked) [Compound C3d]	> 50000
CC(C)C[C@H](NC(=O)OC[C@H]1[C@H](Cc2ccccc2)C1(F)F)C(=O)N[C@H](C=O)C[C@H]1CCNC1=O [Compound C4c]	> 50000
CC(C)C[C@H](NC(=O)OC[C@H]1[C@H](Cc2ccccc2)C1(F)F)C(=O)N[C@@H](C[C@H]1CCNC1=O)C(O)S(=O)(=O)O (some centres unmarked) [Compound C4d]	> 50000
CC(C)C[C@H](NC(=O)OC[C@@H]1C[C@H]1c1cccc(F)c1)C(=O)N[C@H](C=O)C[C@H]1CCNC1=O [Compound C5c]	> 50000
CC(C)C[C@H](NC(=O)OC[C@@H]1C[C@H]1c1cccc(F)c1)C(=O)N[C@@H](C[C@H]1CCNC1=O)C(O)S(=O)(=O)O (some centres unmarked) [Compound C5d]	> 50000
CC(C)C[C@H](NC(=O)OC[C@@H]1C[C@H]1c1cccc(Cl)c1)C(=O)N[C@H](C=O)C[C@H]1CCNC1=O [Compound C6c]	> 50000
CC(C)C[C@H](NC(=O)OC[C@@H]1C[C@H]1c1ccc(Cl)cc1)C(=O)N[C@H](C=O)C[C@H]1CCNC1=O [Compound C8c]	> 50000
CC(C)C[C@H](NC(=O)OC[C@@H]1C[C@H]1c1ccc(Cl)cc1)C(=O)N[C@@H](C[C@H]1CCNC1=O)C(O)S(=O)(=O)O (some centres unmarked) [Compound C8d]	> 50000
CC(C)C[C@H](NC(=O)OCC(C)(C)Sc1cccc(F)c1)C(=O)N[C@@H](C[C@@H]1CCNC1=O)C(O)S(=O)(=O)O (some centres unmarked) [Compound D5d]	> 50000
CC(C)C[C@H](NC(=O)OCC(C)(C)Oc1ccccc1)C(=O)N[C@H](C=O)C[C@@H]1CCNC1=O [Compound D10c]	> 50000
CC(C)C[C@H](NC(=O)OCC(C)(C)Oc1ccccc1)C(=O)N[C@@H](C[C@@H]1CCNC1=O)C(O)S(=O)(=O)O (some centres unmarked) [Compound D10d]	> 50000
CC(C)C[C@H](NC(=O)OCC(C)(O)c1cccc(Cl)c1)C(=O)N[C@H](C=O)C[C@@H]1CCNC1=O (some centres unmarked) [Compound D17c]	> 50000
CC(C)C[C@H](NC(=O)OCC(C)(O)c1cccc(Cl)c1)C(=O)N[C@@H](C[C@@H]1CCNC1=O)C(O)S(=O)(=O)O (some centres unmarked) [Compound D17d]	> 50000
CC(C)C[C@H](NC(=O)OCc1ccccc1)C(=O)N[C@@H](C[C@@H]1CCNC1=O)C(=O)C(=O)NC(C)C [Compound E6a]	> 50000
CC(C)C[C@H](NC(=O)OCc1ccccc1)C(=O)N[C@@H](C[C@@H]1CCNC1=O)C(=O)C(=O)NC1CCCCC1 [Compound E6e]	> 50000
